Data taken from patent US20250353860A1, “PIPERIDINE CARBOXAMIDE AZAINDANE DERIVATIVE, METHOD FOR PREPARING SAME, AND USE THEREOF” (BRISE PHARMACEUTICALS CO., LTD., priority 2022, published 2025).

Experiments:
[1] = biological target: T1, CGRP receptor (Homo sapiens, UniProt O60894+Q16602); experiment: Inhibition of CGRP signaling pathway (cAMP, HTRF) in CHO-K1 cells expressing human CGRP receptors; assay type: cell-based; design: host or cells: CHO-K1; details: [α-CGRP]=10 ng/ml; increase in cAMP levels; read-out: IC50 of the inhibitory effect on the CGRP signaling pathway in CHO-K1 cells expressing human CGRP receptors
T1 sequence (Q16602 23-461): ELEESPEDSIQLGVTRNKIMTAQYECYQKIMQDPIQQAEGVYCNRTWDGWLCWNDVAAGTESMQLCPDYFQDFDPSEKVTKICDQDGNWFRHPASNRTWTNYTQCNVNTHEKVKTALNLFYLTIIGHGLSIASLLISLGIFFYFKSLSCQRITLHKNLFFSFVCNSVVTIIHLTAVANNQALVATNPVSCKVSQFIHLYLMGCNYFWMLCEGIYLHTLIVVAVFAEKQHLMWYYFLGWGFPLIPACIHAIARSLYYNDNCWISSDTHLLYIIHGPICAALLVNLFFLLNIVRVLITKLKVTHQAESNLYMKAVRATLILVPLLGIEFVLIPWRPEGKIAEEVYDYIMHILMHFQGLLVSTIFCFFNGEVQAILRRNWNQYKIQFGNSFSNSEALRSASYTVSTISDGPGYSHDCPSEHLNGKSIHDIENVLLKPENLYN
T1 sequence (O60894 27-148): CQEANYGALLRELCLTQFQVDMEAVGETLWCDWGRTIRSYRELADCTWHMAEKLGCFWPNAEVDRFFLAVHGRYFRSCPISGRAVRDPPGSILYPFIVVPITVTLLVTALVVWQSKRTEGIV
Procedure: (§1) The inhibitory effect of the CGRP signaling pathway in vitro is evaluated by measuring the cAMP level. The principle is that after CGRP binds to the CGRP receptor, the CGRP signaling pathway is activated, inducing an increase in the cAMP level. […] The specific experimental method is as follows:
CHO-K1 cells expressing human CGRP receptor (CGRPR/CHO-K1, PerkinElmer, ES-420-C) were cultured in F12K+10% FBS+400 μg/mL G418+10 μg/mL Blasticidin medium, and the cells were collected in the logarithmic growth phase. According to the instructions of the kit, the cells were resuspended in Stimulation Buffer comprising 0.5 mM IBMX, and 5 μL of the cell suspension was added to each well of a 96-well microplate (Cisbio, 66PL96025) at a cell density of 15,000 cells/well. 2.5 μL of gradient diluted compound solution was added to each well. After incubation at 37° C. for 30 minutes, 2.5 μL of 40 ng/ml human α-CGRP (Bachem, H-1470,0500) diluted in Stimulation Buffer comprising 0.5 mM IBMX was added to each well to a final concentration of 10 ng/ml. After incubation at 37° C. for 30 minutes, 5 μL of Anti-cAMP-Cryptate solution and 5 μL of cAMP-d2 solution were added to each well. After incubation at room temperature for 60 minutes, the HTRF signal was read using a microplate reader (Molecular Devices). Graphpad Prism was used to calculate the IC50 value of the compound's inhibitory effect on the increase in cAMP levels based on the compound concentration and HTRF signal.

[2] = Pharmacokinetics in SD rats by oral gavage; assay type: in vivo; details: for Pharmacokinetic properties compared with Atogepant: conclusion in words; for AUC / bioavailability / half-life / Cmax: male, Sprague-Dawley, rat, plasma, PO 10 mg/kg; for bioavailability: read-out: Bioavailability F; for half-life: read-out: Half-life period T½ (converted); for Cmax: read-out: Plasma concentration Cmax
Text: SD rats were used as test animals, and the LC/MS/MS method was used to determine the drug concentration in plasma at different times after gavage and intravenous […] of the compound of the application, so as to study the pharmacokinetic characteristics of the compound of the application in rats.
Positive control compound Atogepant, Example 1A and Example 3A of the present application;
Eighteen healthy adult Sprague Dawley (SD) male rats were purchased from Joinn (Suzhou) New Drug Research Center Co., Ltd.
An appropriate amount of the compound to be tested was weighed, added with 100% polyethylene glycol 400, and vortexed to dissolve the compound. After the preparation was completed, it would be a colorless and transparent solution with a concentration of 2 mg/mL.
An appropriate amount of the compound to be tested was weighed, added 90% polyethylene glycol 400 and 10% ethanol, and vortexed to dissolve the compound. After the preparation was completed, it would be a colorless and transparent solution with a concentration of 1 mg/mL.
Eighteen healthy adult SD male rats were fasted overnight and fed 4 hours after drug administration.
About 0.2 mL of blood was collected from the jugular vein before administration and 0.083 hours, 0.25 hours, 0.5 hours, 1 hour, 2 hours, 4 hours, 6 hours, 8 hours, 10 hours and 24 hours after administration, and anticoagulated with EDTA-K2. After blood samples were collected, they were placed in labeled ice-water bath centrifuge tubes and rapidly centrifuged to separate plasma. The centrifugation conditions were: 4000 rpm, 10 minutes, 4° C. The collected plasma was stored at below −40° C. for testing. The content of the tested compounds in the plasma of SD rats after gavage and intravenous administration of different compounds was determined by LC-MS/MS.

[3] = biological target: T1, CGRP receptor; experiment: Inhibition of CGRP signaling pathway (cAMP, HTRF) in SK-N-MC cells; assay type: cell-based; design: SK-N-MC (ATCC, HTB-10) cells endogenously expressing CGRP receptor; host or cells: SK-N-MC; details: [α-CGRP]=10 ng/mL; increase in cAMP levels; read-out: IC50 of the inhibitory effect on the CGRP signaling pathway in SK-N-MC cells
Procedure: as §1
cAMP was determined using the CAMP-GS DYNAMIC KIT detection kit (Cisbio, 62AM4PEB).
SK-N-MC (ATCC, HTB-10) cells endogenously expressing CGRP receptor were cultured in EMEM+10% FBS medium and the cells were collected during the logarithmic growth phase. According to the instructions of the kit, the cells were resuspended in Stimulation Buffer comprising 0.5 mM IBMX, and 5 μL of the cell suspension was added to each well of a 96-well microplate (Cisbio, 66PL96025) at a cell density of 15,000 cells/well, 2.5 μL of gradient diluted compound solution was added to each well. After incubation at 37° C. for 30 minutes, 2.5 μL of 40 ng/ml human α-CGRP (Bachem, H-1470.0500) diluted in Stimulation Buffer comprising 0.5 mM IBMX was added to each well to a final concentration of 10 ng/ml. After incubation at 37° C. for 30 minutes, 5 μL of Anti-cAMP-Cryptate solution and 5 μL of cAMP-d2 solution were added to each well. After incubation at room temperature for 60 minutes, the HTRF signal was read using a microplate reader (Molecular Devices). Graphpad Prism was used to calculate the IC50 value of the compound's inhibitory effect on the increase in cAMP levels based on the compound concentration and HTRF signal.

Row | SMILES | IC50 [1] [nM] | Pharmacokinetic properties compared with Atogepant [2] | AUC [2] [ng·h/mL] | bioavailability [2] [%] | half-life [2] [h] | Cmax [2] [ng/mL] | IC50 [3] [nM]
1 | C[C@@H]1[C@H](c2c(F)ccc(F)c2F)C[C@H](NC(=O)c2cc3c(s2)C[C@]2(C3)C(=O)Nc3ncccc32)C(=O)N1CC(F)(F)F [Example 3A, (S)—N-((3S,5S,6R)-6-methyl-2-oxo-1-(2,2,2-trifluoroethyl)-5-(2,3,6-trifluorophenyl)piperidin-3-yl)-2′-oxo-1′,2′,4,6-tetrahydrospiro[cyclopenta[b]thiophene-5,3′-pyrrolo[2,3-b]pyridine]-2-carboxamide] | 2.9 | good pharmacokinetic properties | 42500 ± 8520 | 90.5 ± 19.1 | 1.62 ± 0.2 | 10500 ± 3730 | 0.68
2 | C[C@@H]1[C@H](c2c(F)ccc(F)c2F)C[C@H](NC(=O)c2cc3c(o2)CC[C@]2(C3)C(=O)Nc3ncccc32)C(=O)N1CC(F)(F)F [Example 1A, (R)—N-((3S,5S,6R)-6-methyl-2-oxo-1-(2,2,2-trifluoroethyl)-5-(2,3,6-trifluorophenyl)piperidin-3-yl)-2′-oxo-1′,2′,6,7-tetrahydro-4H-spiro[benzofuran-5,3′-pyrrolo[2,3-b]pyridine]-2-carboxamide] | 14.5 | good pharmacokinetic properties | 23200 ± 7950 | 38.6 ± 13.3 | 2.93 ± 0.6 | 3850 ± 1460 | 0.18
3 | C[C@@H]1[C@H](c2c(F)ccc(F)c2F)C[C@H](NC(=O)c2cnc3c(c2)C[C@@]2(C3)C(=O)Nc3ncccc32)C(=O)N1CC(F)(F)F [Atogepant, reference compound] | 1.5 |  | 2440 ± 1400 | 12.5 ± 7.3 | 1.6 ± 0.3 | 560 ± 233 | 0.12
